Like-named read-outs stand apart in the source and are kept apart here. Where a SMILES comes first, the peptide text is derived from it. Where no end group is shown, it is not given here.

For assay [1], the system named is Enterococcus faecalis CECT 795. Kind of assay: Antimicrobial activity (colony count after 2 h incubation). The assay is classed as cell-based. The conditions noted are these: synthetic peptide 0.05 mM. The method, then:
(§1) The antimicrobial activity is determined in accordance with the method of A. Pellegrini, C. Deltting, U. Thomas, P. Hunziker (Isolation and characterization of four bactericidal domains in the bovine β-lactoglobulin Biochimica et Biophysica Acta, 2001, 1526:131-140) using as microorganisms Escherichia coli [American Type Culture Collection (ATCC), Rockville, Md., USA] ATCC 25922, Listeria innocua [Colección Española de Cultivos Tipo (CECT) Valencia, Spain] CECT 910T, Staphylococcus epidermidis CECT 231, Enterococcus faecalis CECT 795, Serratia marcescens CECT 854 and Staphylococcus carnosus CECT 4491T.
(§2) The bacterial suspensions are inoculated at 1% in the Tryptose Soy Broth (TSB) for Escherichia coli, Serratia marcescens and the strains of the Staphylococcus genus, or in the brain-heart infusion (BHI) broth for Enterococcus faecalis and Listeria innocua. The incubation is carried out at 37° C., except in the case of Serratia marcescens, which is at 30° C.
(§3) The bacterial innoculum, from which the work is begun, is obtained after incubating a colony grown in TSB-Agar or BHI-Agar in 10 mL of TSB or BHI overnight at 37a or 30° C. The bacterial suspension (1 mL) is diluted 1/50 with the corresponding culture medium, being incubated at the appropriate temperature for each strain up to achieving a population density of 1-4×10^8 colony-forming units (CFU) per mL. The culture is centrifuged at 2000×g for 10 minutes, the sedimented bacteria are washed twice with 15 mL phosphate buffer (pH 7.4) and the population is adjusted to 10^6 CFU/mL. On a sterile multi-well plate (Greiner Labortechnik, Frickenhausen, Germany), 50 μL of the bacterial suspension, 50 μL of the substance to be tested and 100 μL of the phosphate buffer are mixed with 2% of the appropriate culture medium in each case, and the mixture is incubated at 37° C. or 30° C. for 2 hours. After this time, the mixture is diluted to 10^−5, 100 μL of each one of the dilutions are added to TSB-Agar or BHI-Agar plates and the plates are incubated for 24 hours, after which time the colony count is taken.
(§4) The following equation is used for calculating the antimicrobial activity:
(§5) [formula] [formula] [formula] Measurement of the Angiotensin-Converting Enzyme Inhibitory Activity (ACEIa)

In assay [2] the test system is Escherichia coli ATCC 25922. The description is as above. The conditions noted are these: synthetic peptide 0.05 mM. The assay is classed as cell-based. On the procedure: as §1, §2, §3, §4, §5
In assay [3] the test system is Staphylococcus epidermidis CECT 231. Described as above. The assay is classed as cell-based. To be noted: synthetic peptide 0.05 mM. On the procedure: as §1, §2, §3, §4, §5
Assay [4] relates to Staphylococcus carnosus CECT 4491T. Described as above. It counts as cell-based. To be noted: synthetic peptide 0.05 mM. On the procedure:
as §1, §2, §3, §4, §5

The test system of assay [5] is Listeria innocua CECT 910T. The description is as above. It counts as cell-based. The conditions noted are these: synthetic peptide 0.05 mM. The method, then:
as §1, §2, §3, §4, §5

Assay [6] has as its system Serratia marcescens CECT 854. The description is as above. It counts as cell-based. The conditions noted are these: synthetic peptide 0.05 mM. On the procedure: as §1, §2, §3, §4, §5
Assay [7] has as its target T1, angiotensin-converting enzyme (ACE) (Oryctolagus cuniculus, UniProt P12822).
T1 sequence (P12822 34-1310): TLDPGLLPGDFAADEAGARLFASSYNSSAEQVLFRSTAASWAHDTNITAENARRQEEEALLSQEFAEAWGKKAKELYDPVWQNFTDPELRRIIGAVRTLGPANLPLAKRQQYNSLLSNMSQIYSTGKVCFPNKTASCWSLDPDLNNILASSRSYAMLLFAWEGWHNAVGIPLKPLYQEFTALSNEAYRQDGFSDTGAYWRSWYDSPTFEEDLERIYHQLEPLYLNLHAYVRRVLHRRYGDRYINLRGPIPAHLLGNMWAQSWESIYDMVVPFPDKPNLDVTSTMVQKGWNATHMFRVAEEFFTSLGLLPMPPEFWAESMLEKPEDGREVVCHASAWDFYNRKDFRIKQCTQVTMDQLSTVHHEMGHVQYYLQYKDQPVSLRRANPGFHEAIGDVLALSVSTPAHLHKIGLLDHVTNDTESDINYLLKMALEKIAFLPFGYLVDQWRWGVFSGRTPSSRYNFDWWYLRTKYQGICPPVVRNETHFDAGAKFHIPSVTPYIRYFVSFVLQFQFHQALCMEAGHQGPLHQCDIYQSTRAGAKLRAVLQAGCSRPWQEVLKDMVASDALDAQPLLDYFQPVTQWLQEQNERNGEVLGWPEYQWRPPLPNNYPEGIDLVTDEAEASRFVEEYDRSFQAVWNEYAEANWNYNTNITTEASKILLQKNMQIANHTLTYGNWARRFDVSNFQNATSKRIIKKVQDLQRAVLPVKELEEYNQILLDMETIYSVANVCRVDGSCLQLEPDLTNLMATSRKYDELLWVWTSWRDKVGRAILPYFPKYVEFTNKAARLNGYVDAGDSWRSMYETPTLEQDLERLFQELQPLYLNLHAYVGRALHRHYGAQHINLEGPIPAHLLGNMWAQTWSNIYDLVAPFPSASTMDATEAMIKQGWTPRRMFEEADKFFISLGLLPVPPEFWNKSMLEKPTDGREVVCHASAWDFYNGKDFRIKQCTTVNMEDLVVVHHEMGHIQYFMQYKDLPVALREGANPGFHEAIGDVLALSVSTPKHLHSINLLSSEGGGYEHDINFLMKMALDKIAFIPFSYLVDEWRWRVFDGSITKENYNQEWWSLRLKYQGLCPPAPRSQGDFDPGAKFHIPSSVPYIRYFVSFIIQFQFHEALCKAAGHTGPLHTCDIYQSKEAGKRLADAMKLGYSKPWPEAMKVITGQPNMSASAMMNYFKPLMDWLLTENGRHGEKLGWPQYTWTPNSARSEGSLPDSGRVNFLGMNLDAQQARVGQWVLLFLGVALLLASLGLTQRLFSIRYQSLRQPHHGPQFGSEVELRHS
The experiment in a line: Angiotensin-converting enzyme inhibitory activity (ACEIa) in vitro. It counts as biochemical. On the procedure:
The ACE-inhibitory activity is measured in vitro by the method of D. W. Cushman and H. S. Cheung (Spectrophotometric assay and properties of angiotensin-converting enzyme in rabbit lung. Biochemical Pharmacology, 1971, 20:1637-1648) later modified by […]. Yoon, D. Y. Yu, […]. Chung (Novel angiotensin-1-converting enzyme inhibitory peptides derived from recombinant human αs1-casein expressed in Escherichia coli. Journal of Dairy Research 1999, 66,431-439). The substrate, […], Sigma, Chemical Co, St. Louis, Mo., USA), is dissolved in 0.1 M borate buffer with 0.3 M NaCl, pH 8.3, to obtain a final concentration of 5 mM. 40 μL of each one of the samples whose ACE-inhibitory activity is to be assayed are added to 100 μL of substrate. The ACE enzyme ([…], Sigma) is added, dissolved in 50% glycerol and diluted at the point in time of performing the test in 1/10 bidistilled water. The reaction is carried out at 37° C. for 30 minutes in water bath. The enzyme is inactivated by reducing the pH with 150 μl HCL 1N. The hipuric acid formed is extracted with 1000 μL ethyl acetate. Following agitation in vortex for 20 seconds, it is centrifuged at 3000×g for 10 minutes at ambient temperature. 750 μL are taken from the organic phase that is heat-evaporated at 95° C. for 10 minutes. The hipuric acid residue is re-dissolved in 800 μL bidistilled water and, after agitating for 20 seconds, the absorbance at 228 nm is measured in a Dur-70 spectrophotometer from Beckman Instruments, Inc., Fullerton, USA. The following equation is used for calculating the percentage of ACE-inhibitory activity: [formula] The blank is used to correct the background absorbance. This blank contains substrate, enzyme and 20 μL bidistilled water instead of sample, and the reaction is halted at time zero. The control entailed one hundred percent of the enzymatic action on the substrate in absence of inhibitors and contains […] of water instead of sample and is incubated for the same length of time as the sample. The results are shown as IC50 (μM) or concentration at which the activity of the enzyme is inhibited by 50%. The protein concentration is determined by means of the bicinchoninic acid test (Pierce-Rockord, Ill., USA), using bovine seroalbumin as a pattern.

The subject of assay [8] is spontaneously hypertensive rats (SHR). Kind of assay: Antihypertensive activity in spontaneously hypertensive rats (SHR), tail cuff SBP and DBP. It counts as in vivo, rat. The conditions noted are these: 2 mg/kg, intragastric catheter. The method, then:
The effect of several of the peptides identified on the blood pressure of spontaneously hypertensive rats (SHR) is studied. The peptides are chemically synthesized for this study.
The study is conducted with male SHR rats 17-20 weeks of age weighing 300 to 350 g, from Charles River Laboratories España S. A. The rats are kept in cages, five per cage, maintaining a stable temperature of 25° C., with 12-hour light-darkness cycles, taking water and food ad libitum. […] The SBP and DBP values are determined by taking 3 consecutive measurements and calculating the average of the three values for each one of these two variables. […]
The products to be tested are administered by means of an intragastric catheter within a time span ranging from 9 a.m. to 10 a.m., and the dosage tested is administered dissolved in 1 ml of distilled water. SBP and DBP readings are taken prior to the administration, and periodic measurements of these variables are also made every 2 hours following the administration, up to 8 hours post-administration. […]
The results are grouped and the ±average of the standard error of the measurement (SEM) for a minimum of 6 homogeneous tests is calculated. […]

The mark [9] stands for this setting: read-out: ACE-inhibitory activity CI50, synthetic peptides of FC1 and FD1 subfractions.

In the case of “VDQHQKAMKPWTQPKTNAIPYVRYL (Derived from casein) [SEQ. ID. No. 2, ovine αs2-casein fragment 184-208]”, in assay [1], the “Antimicrobial activity E. faecalis” value came out at 0. Besides, the “Antimicrobial activity E. coli” value in assay [2] is 0.07. Further, in assay [3], the “Antimicrobial activity S. epidermidis” value came out at 0.61. Moreover, in assay [4], the “Antimicrobial activity S. carnosus” value was more than 6 and the “antimicrobial activity against S. carnosus (in words)” value is “bactericidal activity”. Moreover, the “Antimicrobial activity L. innocua” value in assay [5] is recorded as 1.71. Further, the “Antimicrobial activity S. marcescens” value in assay [6] was 0.
For `CC(C)[C@H](NC(=O)[C@H](Cc1ccc(O)cc1)NC(=O)[C@@H]1CCCN1)C(=O)O` [SEQ. ID. No. 15, PYV] (H-Pro-Tyr-Val-OH; N-terminus and C-terminus assumed), the IC50 in assay [7] (synthetic peptides resulting from simulated gastrointestinal digestion, read-out: ACE-inhibitory activity IC50) is 741 µM. Moreover, in assay [7] (versus PYVRYL), the “times less ACE-inhibitory activity than the starting peptide” value turned out to be 370 times. Also, in assay [8], the “lowering of the SBP and DBP” value was “significant lowering of the SBP and DBP”; the “time of peak effect on the SBP after administration” value worked out at 2 h.
As for LKKISQ [SEQ. ID. No. 1, LKKISQ], the “ACE-inhibitory activity (in words)” value in assay [7] is “potent ACE-inhibitory activity”. Moreover, the IC50 in assay [7] (setting [9]) was found to be 2.1 µM. For the same compound, the “Antimicrobial activity E. faecalis” value in assay [1] came out at 0. Further, in assay [2], the “Antimicrobial activity E. coli” value is given as 0.33. Besides, the “Antimicrobial activity S. epidermidis” value in assay [3] is 3.6. Besides, in assay [4], the “Antimicrobial activity S. carnosus” value is more than 6 and the “antimicrobial activity against S. carnosus (in words)” value is listed as “bactericidal activity”. For the same compound, the “Antimicrobial activity L. innocua” value in assay [5] was found to be 1.11. The “Antimicrobial activity S. marcescens” value in assay [6] is given as 0.
Turning to PYVRYL [SEQ. ID. No. 7, PYVRYL], the IC50 in assay [7] (setting [9]) was found to be 1.94 µM.
For the compound AYFYPEL [SEQ. ID. No. 13, AYFYPEL], the IC50 in assay [7] (read-out: ACE-inhibitory activity CI50, synthetic peptides of bovine casein permeate fractions) was determined as 7.5 µM.
HLPLPLL [SEQ. ID. No. 14, HLPLPLL]: the IC50 in assay [7] (synthetic peptides of bovine casein permeate fractions, read-out: ACE-inhibitory activity CI50) amounted to 34.2 µM.
For “LKKISQYYQKFAWPQYL (Derived from casein) [SEQ. ID. No. 3, ovine αs2-casein fragment 165-181]”, the “Antimicrobial activity E. faecalis” value in assay [1] is on record as 3.32. Further, in assay [2], the “Antimicrobial activity E. coli” value was 4.63 and the “antimicrobial activity against E. coli (in words)” value is given as “high degree of antimicrobial activity”. Besides, the “Antimicrobial activity S. epidermidis” value in assay [3] is on record as more than 6. For the same compound, in assay [4], the “Antimicrobial activity S. carnosus” value was more than 6 and the “antimicrobial activity against S. carnosus (in words)” value was “bactericidal activity”. Moreover, in assay [5], the “Antimicrobial activity L. innocua” value is on record as more than 6. In addition, in assay [6], the “Antimicrobial activity S. marcescens” value is reported as 0.38.

Values taken from patent US8354502B2, “Bioactive peptides identified in enzymatic hydrolyzates of milk caseins and method of obtaining same” (Consejo Superior de Investigaciones Cientificas, priority 2005, dated 2013).
